Test results reported in patent publication US10358436B2, “Kinase inhibitors and method of treating cancer” (University Health Network, priority 2010, dated 2019).

Biological target: Aurora A (Homo sapiens (Human), UniProt O14965)
Assay: Aurora A inhibition assay (Z-Lyte)
Assay type: biochemical

Aurora A, sequence (O14965 whole entry): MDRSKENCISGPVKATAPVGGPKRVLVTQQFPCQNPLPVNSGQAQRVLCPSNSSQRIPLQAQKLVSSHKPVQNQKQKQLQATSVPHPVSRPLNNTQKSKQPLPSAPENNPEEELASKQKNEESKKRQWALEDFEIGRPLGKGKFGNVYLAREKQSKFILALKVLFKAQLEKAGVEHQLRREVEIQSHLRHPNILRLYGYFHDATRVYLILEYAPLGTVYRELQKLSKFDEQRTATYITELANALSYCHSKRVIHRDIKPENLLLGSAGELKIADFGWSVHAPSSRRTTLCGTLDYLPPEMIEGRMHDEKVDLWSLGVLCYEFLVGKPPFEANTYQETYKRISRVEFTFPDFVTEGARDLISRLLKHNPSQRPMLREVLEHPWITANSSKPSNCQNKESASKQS

SMILES	inhibition at 1 µM [%]	IC50 [nM]
CN(C)Cc1cccc(/C=C/c2n[nH]c3cc([C@@H]4C[C@@]45C(=O)Nc4ccccc45)ccc23)c1 (relative stereo) [Example A162, (1R*,2S*)-(E)-2-(3-(3-((dimethylamino)methyl)styryl)-1H-indazol-6-yl)spiro[cyclopropane-1,3′-indolin]-2′-one 2,2,2-trifluoroacetate]	> 50	
NC(=O)CN1C(=O)[C@@]2(C[C@H]2c2ccc3c(/C=C/c4ccc(CN5CCCCC5)cc4)n[nH]c3c2)c2ccccc21 (relative stereo) [Example A165, 2-((1R*,2S*)-(E)-2′-oxo-2-(3-(4-(piperidin-1-ylmethyl)styryl)-1H-indazol-6-yl)spiro[cyclopropane-1,3′-indoline]-1′-yl)acetamide 2,2,2-trifluoroacetate]	> 50	
COc1ccc2c(c1)[C@]1(C[C@H]1c1ccc3c(-c4ccc(CN(C)C)cc4)n[nH]c3c1)C(=O)N2 (relative stereo) [Example A166, (1R*,2S*)-2-(3-(4-((dimethylamino)methyl)phenyl)-1H-indazol-6-yl)-5′-methoxyspiro[cyclopropane-1,3′-indolin]-2′-one 2,2,2-trifluoroacetate]	< 50	
CCc1ccc2c(c1)[C@]1(C[C@H]1c1ccc3c(/C=C/c4ccc(CN(C)C)cc4)n[nH]c3c1)C(=O)N2 (relative stereo) [Example A167, (1R*,2S*)-(E)-2-(3-(4-((dimethylamino)methyl)styryl)-1H-indazol-6-yl)-5′-ethylspiro[cyclopropane-1,3′-indolin]-2′-one 2,2,2-trifluoroacetate]	> 50	
COc1cc2c(cc1OC)[C@]1(C[C@H]1c1ccc3c(/C=C/c4ccc(CN(C)C)cc4)n[nH]c3c1)C(=O)N2 (relative stereo) [Example A168, (1R*,2S*)-(E)-2-(3-(4-((dimethylamino)methyl)styryl)-1H-indazol-6-yl)-5′,6′-dimethoxyspiro[cyclopropane-1,3′-indolin]-2′-one 2,2,2-trifluoroacetate]	< 50	
Cc1ccc2c(c1)[C@]1(C[C@H]1c1ccc3c(/C=C/c4ccc(CN(C)C)cc4)n[nH]c3c1)C(=O)N2 (relative stereo) [Example A169, (1R*,2S*)-(E)-2-(3-(4-((dimethylamino)methyl)styryl)-1H-indazol-6-yl)-5′-methylspiro[cyclopropane-1,3′-indolin]-2′-one 2,2,2-trifluoroacetate]	> 50	
Cc1ccc2c(c1)[C@]1(C[C@H]1c1ccc3c(-c4ccc(N5CCN(C)CC5)cc4)n[nH]c3c1)C(=O)N2 (relative stereo) [Example A173, (1R*,2S*)-5′-methyl-2-(3-(4-(4-methylpiperazin-1-yl)phenyl)-1H-indazol-6-yl)spiro[cyclopropane-1,3′-indolin]-2′-one 2,2,2-trifluoroacetate]	< 50	
COc1ccc2c(c1)[C@]1(C[C@H]1c1ccc3c(/C=C/c4ccc(N5CCN(C)CC5)cc4)n[nH]c3c1)C(=O)N2 (relative stereo) [Example A174, (1R*,2S*)-(E)-5′-methoxy-2-(3-(4-(4-methylpiperazin-1-yl)styryl)-1H-indazol-6-yl)spiro[cyclopropane-1,3′-indolin]-2′-one 2,2,2-trifluoroacetate]	> 50	
CC(C)CCN1C(=O)[C@@]2(C[C@H]2c2ccc3c(/C=C/c4ccc(CN(C)C)cc4)n[nH]c3c2)c2ccccc21 (relative stereo) [Example A176, (1R*,2S*)-(E)-2-(3-(4-((dimethylamino)methyl)styryl)-1H-indazol-6-yl)-1′-isopentylspiro[cyclopropane-1,3′-indolin]-2′-one]	> 50	
COc1ccc2c(c1)[C@]1(C[C@H]1c1ccc3c(/C=C/c4csc(CN(C)C)c4)n[nH]c3c1)C(=O)N2 (relative stereo) [Example A181, (1R*,2S*)-2-(3-4E)-2-(5-((dimethylamino)methyl)thiophen-3-yl)vinyl)-1H-indazol-6-yl)-5′-methoxyspiro[cyclopropane-1,3′-indolin]-2′-one 2,2,2-trifluoroacetate]	> 50	
COc1ccc2c(c1)[C@]1(C[C@H]1c1ccc3c(/C=C/c4ccc(N5CCNCC5)cc4)n[nH]c3c1)C(=O)N2 (relative stereo) [Example A182, (1R*,2S*)-5′-methoxy-2-(3-(4-(piperazin-1-yl)styryl)-1H-indazol-6-yl)spiro[cyclopropane-1,3′-indolin]-2′-one 2,2,2-trifluoroacetate]	> 50	
COc1ccc2c(c1)[C@]1(C[C@H]1c1ccc3c(/C=C/c4csc(CN5CCOCC5)c4)n[nH]c3c1)C(=O)N2 (relative stereo) [Example A184, (1R*,2S*)-5′-methoxy-2-(3-((E)-2-(5-(morpholinomethyl)thiophen-3-yl)vinyl)-1H-indazol-6-yl)spiro[cyclopropane-1,3′-indolin]-2′-one 2,2,2-trifluoroacetate]	> 50	
CCN1CCN(c2ccc(/C=C/c3n[nH]c4cc([C@@H]5C[C@@]56C(=O)Nc5ccc(OC)cc56)ccc34)cc2)CC1 (relative stereo) [Example A188, (1R*,2S*)-(E)-2-(3-(4-(4-ethylpiperazin-1-yl)styryl)-1H-indazol-6-yl)-5′-methoxyspiro[cyclopropane-1,3′-indolin]-2′-one 2,2,2-trifluoroacetate]	> 50	
COc1ccc2c(c1)[C@]1(C[C@H]1c1ccc3c(/C=C/c4ccc(N5CCN(C(C)C)CC5)cc4)n[nH]c3c1)C(=O)N2 (relative stereo) [Example A189, (1R*,2S*)-(E)-2-(3-(4-(4-isopropylpiperazin-1-yl)styryl)-1H-indazol-6-yl)-5′-methoxyspiro[cyclopropane-1,3′-indolin]-2′-one 2,2,2-trifluoroacetate]	> 50	
CCN1Cc2ccc(/C=C/c3n[nH]c4cc([C@@H]5C[C@@]56C(=O)Nc5ccc(OC)cc56)ccc34)cc2C1 (relative stereo) [Example A190, (1R*,2S*)-2-(3-((E)-2-(2-ethylisoindolin-5-yl)vinyl)-1H-indazol-6-yl)-5′-methoxyspiro[cyclopropane-1,3′-indolin]-2′-one 2,2,2-trifluoroacetate]	> 50	
Cc1ccc2c(c1)[C@]1(C[C@H]1c1ccc3c(/C=C/c4ccc(CN5CCOCC5)cc4)n[nH]c3c1)C(=O)N2 (relative stereo) [Example A196, (1R*,2S*)-(E)-5′-methyl-2-(3-(4-(morpholinomethyl)styryl)-1H-indazol-6-yl)spiro[cyclopropane-1,3′-indolin]-2′-one 2,2,2-trifluoroacetate]	> 50	
O=C1Nc2ccc(F)cc2[C@]12C[C@H]2c1ccc2c(/C=C/c3ccc(N4CCOCC4)nc3)n[nH]c2c1 (relative stereo) [Example A207, (1R*,2S*)-5′-fluoro-2-(3-((E)-2-(6-morpholinopyridin-3-yl)vinyl)-1H-indazol-6-yl)spiro[cyclopropane-1,3′-indolin]-2′-one 2,2,2-trifluoroacetate]	> 50	
CN(C)Cc1ccc(/C=C/c2n[nH]c3cc([C@@H]4C[C@@]45C(=O)Nc4ccc(F)cc45)ccc23)cc1 (relative stereo) [Example A208, (1R*,2S*)-(E)-2-(3-(4-((dimethylamino)methyl)styryl)-1H-indazol-6-yl)-5′-flurorospiro[cyclopropane-1,3′-indolin]-2′-one 2,2,2-trifluoroacetate]	> 50	
CN1CCN(c2ccc(-c3n[nH]c4cc([C@@H]5C[C@@]56C(=O)Nc5ccc(OC(F)F)cc56)ccc34)cn2)CC1 (relative stereo) [Example A209, 1R*,2S*1-5′-(difluoromethoxy)-2-(3-(6-(4-methylpiperazine-1-yl)pyridine-3-yl)-1H-indazol-6-yl) spiro[cyclopropane-1,3′-indolin]-2′-one 2,2,2-trifluoroacetate]	< 50	
CN1CCN(c2ccc(-c3n[nH]c4cc([C@@H]5C[C@@]56C(=O)Nc5ccc(F)cc56)ccc34)cn2)CC1 (relative stereo) [Example A210, 1R*,2S*1-5′-fluoro-2-(3-(6-(4-methylpiperazine-1-yl)pyridine-3-yl)-1H-indazol-6-yl)-spiro[cyclopropane-1,3′-indolin]-2′-one]	> 50	
COc1ccc2c(c1)[C@]1(C[C@H]1c1ccc3c(/C=C/c4ccc(N5CCOCC5)nc4)n[nH]c3c1)C(=O)N2 (relative stereo) [Example A213, (1R*,2S*)-5′-methoxy-2-(3-((E)-2-(6-morpholinopyridin-3-yl)vinyl)-1H-indazol-6-yl)spiro[cyclopropane-1,3′-indolin]-2′-one 2,2,2-trifluoroacetate]	> 50	
CN(C)Cc1ccc(/C=C/c2n[nH]c3cc([C@@H]4C[C@@]45C(=O)Nc4ccc(OC(F)F)cc45)ccc23)cc1 (relative stereo) [Example A214, (1R*,2S*)-(E)-5′-difluoromethoxy-2-(3-(4-((dimethylamino)methyl)styryl)-1H-indazol-6-yl)spiro[cyclopropane-1,3′-indolin]-2′-one 2,2,2-trifluoroacetate]	> 50	
COc1ccc2c(c1)[C@]1(C[C@H]1c1ccc3c(/C=C/c4cc(F)c(CN(C)C)c(F)c4)n[nH]c3c1)C(=O)N2 (relative stereo) [Example A215, (1R*,2S*)-(E)-2-(3-(4-((dimethylamino)methyl)-3,5-difluorostyryl)-1H-indazol-6-yl)-5′-methoxyspiro[cyclopropane-1,3′-indolin]-2′-one 2,2,2-trifluoro acetate]		< 100
COc1ccc2c(c1)[C@]1(C[C@H]1c1ccc3c(/C=C/c4cc(F)c(CN5CCOCC5)c(F)c4)n[nH]c3c1)C(=O)N2 (relative stereo) [Example A217, (1R*,2S*)-(E)-2-(3-(3,5-difluoro-4-(morpholinomethyl)styryl-1H-indazol-6-yl)-5′-methoxyspiro[cyclopropane-1,3′-indolin]-2′-one 2,2,2-trifluoroacetate]	> 50	
O=C1Nc2ccc(F)cc2[C@]12C[C@H]2c1ccc2c(/C=C/c3ccc(CN4CCOCC4)cc3)n[nH]c2c1 (relative stereo) [Example A219, 1R*,2S*)-(E)-5′-fluoro-2-(3-(4-(morpholinomethyl)styryl-1H-indazol-6-yl)spiro[cyclopropane-1,3′-indolin]-2′-one 2,2,2-trifluoroacetate]	> 50	
